ChEMBL document CHEMBL2401733 (Bioorg Med Chem Lett, 2013)
In brackets after ≈: the same amount, converted by molar mass.

Key:
[1] = biological target: T1, Serine/threonine-protein kinase PLK2 (Homo sapiens, UniProt Q9NYY3)
Description: Inhibition of GST-tagged Plk2 (unknown origin) assessed as inhibition of DEKTDDED phosphorylation at Thr1342 after 60 mins by TR-FRET assay

[2] = Metabolic stability in rat liver microsomes assessed as compound remaining at 1 uM after 30 mins; assay type: ADME, Microsome; settings: read-out: Stability
[3] = Metabolic stability in mouse liver microsomes assessed as compound remaining at 1 uM after 30 mins; assay type: ADME, Microsome; settings: read-out: Stability
[4] = Metabolic stability in human liver microsomes assessed as compound remaining at 1 uM after 30 mins; assay type: ADME, Microsome; settings: read-out: Stability
[5] = biological target: Serine/threonine-protein kinase PLK1 (Homo sapiens, UniProt P53350); test: Inhibition of GST-tagged Plk1 (unknown origin) assessed as inhibition of DEKTDDED phosphorylation at Thr1342 after 60 mins by TR-FRET assay
[6] = Apparent permeability across apical to basolateral side in […] MDCK2 cells at 5 uM after 120 mins by LC/MS/MS analysis; assay type: ADME, cell-based, MDCK-II; settings: MDCK
[7] = Solubility of the compound; assay type: physicochemical
[8] = Lipophilicity, log P of the compound; assay type: physicochemical; settings: octanol/water
[9] = biological target: T1, Serine/threonine-protein kinase PLK2; remark: listed apart in the source
[10] = Drug uptake in Sprague-Dawley rat brain at 100 mg/kg, po measured at 6 hrs; assay type: ADME, organism-based; set-up: dose 100 mg/kg, route oral; settings: read-out: Drug uptake
[11] = Plasma concentration in Sprague-Dawley rat at 200 mg/kg, po measured at 6 hrs; assay type: ADME, organism-based; set-up: dose 200 mg/kg, route oral
[12] = Ratio of drug level from brain to plasma in Sprague-Dawley rat at 100 mg/kg, po measured at 6 hrs; assay type: ADME, organism-based; set-up: dose 100 mg/kg, route oral; settings: brain and plasma, read-out: BPR
[13] = Ratio of drug level from brain to plasma in Sprague-Dawley rat at 200 mg/kg, po measured at 6 hrs; assay type: ADME, organism-based; set-up: dose 200 mg/kg, route oral; settings: brain and plasma, read-out: BPR
Rattus norvegicus = test: Inhibition of Plk2-mediated phosphorylation of alpha-synuclein at Ser129 in Sprague-Dawley rat cerebral cortex at 100 to 200 mg/kg, po measured at 6 hrs by ELISA relative to control; assay type: functional; settings: dose mg/kg 100-200
[14] = Drug uptake in Sprague-Dawley rat brain at 200 mg/kg, po measured at 6 hrs; assay type: ADME, organism-based; set-up: dose 200 mg/kg, route oral; settings: read-out: Drug uptake
[15] = Plasma concentration in Sprague-Dawley rat at 100 mg/kg, po measured at 6 hrs; assay type: ADME, organism-based; set-up: dose 100 mg/kg, route oral
MDR1 = test: Efflux ratio of permeability across apical to basolateral side in […] MDCK cells expressing MDR1 at 5 uM after 120 mins by LC/MS/MS analysis; assay type: ADME, cell-based

T1 sequence (Q9NYY3 whole entry): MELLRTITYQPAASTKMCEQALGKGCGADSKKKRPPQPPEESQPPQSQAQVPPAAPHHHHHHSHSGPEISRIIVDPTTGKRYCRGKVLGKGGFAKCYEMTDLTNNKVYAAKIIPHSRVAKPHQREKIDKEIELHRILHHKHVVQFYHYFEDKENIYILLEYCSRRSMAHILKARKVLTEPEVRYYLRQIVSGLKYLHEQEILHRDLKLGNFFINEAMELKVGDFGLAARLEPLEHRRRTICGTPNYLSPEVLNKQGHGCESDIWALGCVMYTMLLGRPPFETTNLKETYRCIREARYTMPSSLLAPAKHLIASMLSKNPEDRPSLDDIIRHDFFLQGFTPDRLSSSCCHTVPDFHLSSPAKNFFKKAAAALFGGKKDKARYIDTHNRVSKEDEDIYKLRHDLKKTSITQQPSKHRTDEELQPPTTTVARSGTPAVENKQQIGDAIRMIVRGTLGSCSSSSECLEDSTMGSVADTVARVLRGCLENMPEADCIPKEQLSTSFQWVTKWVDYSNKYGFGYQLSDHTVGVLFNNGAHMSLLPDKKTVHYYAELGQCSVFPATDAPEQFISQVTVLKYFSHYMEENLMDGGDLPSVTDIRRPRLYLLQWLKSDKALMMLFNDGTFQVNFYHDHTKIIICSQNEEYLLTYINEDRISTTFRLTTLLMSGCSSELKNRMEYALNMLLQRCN
Sequence of Serine/threonine-protein kinase PLK1 (P53350 whole entry): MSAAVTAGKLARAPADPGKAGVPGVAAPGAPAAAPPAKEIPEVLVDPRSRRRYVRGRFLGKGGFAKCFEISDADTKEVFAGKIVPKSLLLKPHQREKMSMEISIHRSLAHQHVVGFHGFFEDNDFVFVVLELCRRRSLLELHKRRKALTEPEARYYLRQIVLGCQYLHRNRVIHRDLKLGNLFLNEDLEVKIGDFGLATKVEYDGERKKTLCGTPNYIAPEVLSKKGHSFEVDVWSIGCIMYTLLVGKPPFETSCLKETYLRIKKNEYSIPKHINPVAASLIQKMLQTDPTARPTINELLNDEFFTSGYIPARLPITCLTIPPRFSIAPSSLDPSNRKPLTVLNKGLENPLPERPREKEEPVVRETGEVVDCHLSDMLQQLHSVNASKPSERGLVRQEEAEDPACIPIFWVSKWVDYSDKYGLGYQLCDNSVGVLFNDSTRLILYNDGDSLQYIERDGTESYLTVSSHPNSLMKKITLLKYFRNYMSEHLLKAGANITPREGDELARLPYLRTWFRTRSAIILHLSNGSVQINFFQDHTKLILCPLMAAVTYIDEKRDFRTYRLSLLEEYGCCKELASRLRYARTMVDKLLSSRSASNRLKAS

Row | IC50 [1] [nM] | remaining at 0.5 h, 1 µM [2] [%] | remaining at 0.5 h, 1 µM [3] [%] | remaining at 0.5 h, 1 µM [4] [%] | Papp A→B at 2 h, 5 µM [6] [×10⁻⁶ cm/s] | logP ([8]; read-out: logP) | SMILES | other results
1 | 103 | 13 | 5 | 48 | – | – | CC[C@@H]1C(=O)N(C)c2cnc(-c3c[nH]nc3-c3ccc(F)cc3F)nc2N1c1cnn(C)c1 | –
2 | – | 38 | 33 | 38 | 18.3 | – | CC[C@@H]1C(=O)N(C)c2cnc(-c3c[nH]nc3-c3nccs3)nc2N1C(C)C | solubility [7]: 100 µM (≈ 38.3 µg/mL)
3 | – | 14 | 30 | 19 | – | 3 | CC[C@@H]1C(=O)N(C)c2cnc(-n3ccnc3-c3ccc(F)cc3)nc2N1C1CC(F)(F)C1 | –
4 | 1040 | 80 | 74 | 74 | – | 1.6 | CC[C@@H]1C(=O)N(C)c2cnc(-n3ccnc3-c3ccc(F)cc3)nc2N1C1COC1 | IC50 [5]: > 50000 nM
5 | – | 13 | 51 | 17 | – | 1.9 | CC[C@@H]1C(=O)N(C)c2cnc(-n3ccnc3-c3ccccc3)nc2N1[C@H]1CCOC1 | –
6 | – | 0 | 27 | 10 | – | 1.8 | CC[C@@H]1C(=O)N(C)c2cnc(-n3ccnc3-c3ccccc3)nc2N1[C@@H]1CCOC1 | –
7 | 33 | 67 | 63 | 58 | 23.4 | 2 | CC[C@@H]1C(=O)N(C)c2cnc(-n3ccnc3-c3ccc(F)cc3)nc2N1[C@H]1CCOC1 | IC50 [9]: 2050 nM
8 | 44 | 76 | 60 | 55 | – | 1.3 | CC[C@@H]1C(=O)N(C)c2cnc(-n3ccnc3-c3ccccc3)nc2N1c1cncnc1 | –
9 | – | 82 | 66 | 73 | 8.7 | 1.8 | CC[C@@H]1C(=O)N(C)c2cnc(-n3ccnc3-c3ccc(F)cc3)nc2N1c1cn[nH]c1 | –
10 | – | 39 | 44 | 47 | 18.9 | – | CC[C@@H]1C(=O)N(C)c2cnc(-c3cn[nH]c3-c3nccs3)nc2N1C1CCOCC1 | –
11 | 39 | 39 | 47 | 51 | 16.8 | – | CC[C@@H]1C(=O)N(C)c2cnc(-c3c[nH]nc3-c3nccs3)nc2N1[C@H]1CCOC1 | IC50 [9]: 3190 nM
12 | – | 48 | 57 | 84 | 6.6 | – | CC[C@@H]1C(=O)N(C)c2cnc(-c3cn[nH]c3-c3nccs3)nc2N1c1cn[nH]c1 | –
13 | 168 | 87 | 64 | 88 | 10.1 | – | CCC1C(=O)N(C)c2cnc(-c3cn[nH]c3-c3ccccn3)nc2N1c1cnn(C)c1 (racemic) | –
14 | – | – | – | – | 12.2 | – | CCC1C(=O)N(C)c2cnc(-n3ccnc3-c3ccccc3)nc2N1c1cncnc1 (racemic) | IC50 [9]: 3870 nM
15 | – | 8 | 15 | 6 | – | 3.1 | CCC1C(=O)N(C)c2cnc(-n3ccnc3-c3ccc(F)cc3)nc2N1C1CCC(F)(F)C1 (racemic) | –
16 | 9 | 65 | 67 | 72 | 13.2 | 2.2 | CCC1C(=O)N(C)c2cnc(-n3ccnc3-c3ccc(F)cc3)nc2N1c1cc[nH]n1 (racemic) | IC50 [9]: 740 nM
17 | 130 | – | – | – | – | – | CCC1C(=O)N(C)c2cnc(-c3cn[nH]c3-c3nccs3)nc2N1c1cnn(C)c1 (racemic) | –

Second part, the compound before the results:

Row | SMILES | IC50 [1] [nM] | remaining at 0.5 h, 1 µM [2] [%] | remaining at 0.5 h, 1 µM [3] [%] | remaining at 0.5 h, 1 µM [4] [%] | Papp A→B at 2 h, 5 µM [6] [×10⁻⁶ cm/s] | logP ([8]; read-out: logP) | other results
18 | CC(C)N1c2nc(-n3ccnc3-c3ccc(F)cc3)ncc2N(C)C(=O)C12CCC2 | – | 1 | 7 | 4 | – | – | –
19 | CC(C)N1c2nc(-n3ccnc3-c3ccc(F)cc3)ncc2N(C)C(=O)C1(C)C | 2710 | 10 | 25 | 54 | – | – | IC50 [5]: > 100000 nM
20 | CC[C@@H]1C(=O)N(C)c2cnc(-n3ccnc3-c3ccccc3)nc2N1C1CCCC1 | 5 | 0 | 0 | 0 | 11.4 | – | solubility [7]: 100 µM (≈ 40.3 µg/mL)
21 | CC[C@@H]1C(=O)N(C)c2cnc(-n3ccnc3-c3ccccc3)nc2N1C(C)C | – | 0 | 12 | 14 | – | – | logP [8]: Not Active
22 | CC[C@@H]1C(=O)N(C)c2cnc(-n3ccnc3-c3ccccc3)nc2N1CCC(F)(F)F | – | 0 | 2 | 0 | – | 3.1 | –
23 | CC[C@@H]1C(=O)N(C)c2cnc(-n3ccnc3-c3ccc(F)cc3)nc2N1CCC(F)(F)F | – | 30 | 32 | 27 | 15.8 | 3.1 | –
24 | CC[C@@H]1C(=O)N(C)c2cnc(-n3ccnc3-c3ccc(F)cc3)nc2N1c1cnn(C)c1 | – | 86 | 50 | 69 | 21.2 | 2 | –
25 | CC[C@@H]1C(=O)N(C)c2cnc(-n3ccnc3-c3ccc(F)cc3)nc2N1c1ccn(C)n1 | 7 | 26 | 25 | 63 | 18.5 | 2.4 | IC50 [5]: 1350 nM; concentration at 6 h [10]: 5.2 µM; concentration at 6 h [11]: 4880 ng/mL; Kp at 6 h [12]: 0.36; Kp at 6 h [13]: 0.28; inhibition (INH) (Rattus norvegicus): 41%; concentration at 6 h [14]: 3.2 µM; concentration at 6 h [15]: 6290 ng/mL; IC50 [9]: 480 nM; efflux ratio at 2 h, 5 µM (MDR1): 1.1
26 | CC[C@@H]1C(=O)N(C)c2cnc(-n3ccnc3-c3ccc(F)cc3)nc2N1c1ccnn1C | – | 80 | 72 | 74 | – | 1.9 | –
27 | CN1C(=O)C(CC(F)(F)F)N(CCC(F)(F)F)c2nc(-n3ccnc3-c3ccc(F)cc3)ncc21 (racemic) | – | 30 | 42 | 15 | – | – | –
28 | CCC1(C)C(=O)N(C)c2cnc(-n3ccnc3-c3ccc(F)cc3)nc2N1CCC(F)(F)F (racemic) | – | 34 | 29 | 17 | – | – | –
29 | CCC1C(=O)N(C)c2cnc(-n3ccnc3-c3ccccc3)nc2N1c1ccccc1 (racemic) | 17 | 5 | 28 | 21 | – | 3.3 | –
30 | CCC1C(=O)N(C)c2cnc(-n3ccnc3-c3ccc(F)cc3)nc2N1c1ccc(F)cc1 (racemic) | – | 11 | 41 | 47 | – | 3.4 | –
31 | CCC1C(=O)N(C)c2cnc(-n3ccnc3-c3ccc(F)cc3)nc2N1c1ccc(C#N)cc1 (racemic) | 31 | 48 | 49 | 63 | – | 2.7 | –
